Assay results: ChEMBL document CHEMBL1201862, “PubChem BioAssay data set” (2004)
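Five concentrations, 48 hours, 96-well plates. GI50 marks 50% less growth.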 Activity calls are given as the source filed them. Cut-off read from the data, not from the text of the source: active = GI50 up to about 1.1 µM and inactive = higher.

Assays:
Test in all cases: inhibition of tumour cell growth, NCI panel, 48 h
SK-MEL-5 = system: SK-MEL-5
NCI/ADR-RES = system: NCI/ADR-RES
HCT-116 = system: HCT-116
Malme-3M = system: Malme-3M
SK-MEL-2 = system: SK-MEL-2
RXF 393 = system: RXF 393
DU-145 = system: DU-145
UO-31 = system: UO-31
K562 = system: K562
MCF7 = system: MCF7
SF-268 = system: SF-268
ACHN = system: ACHN
NCI-H226 = system: NCI-H226
786-0 = system: 786-0
NCI-H23 = system: NCI-H23
EKVX = system: EKVX
UACC-257 = system: UACC-257
U-251 = system: U-251
TK-10 = system: TK-10
M14 = system: M14
SNB-75 = system: SNB-75
CAKI-1 = system: CAKI-1
CCRF-CEM = system: CCRF-CEM
SW-620 = system: SW-620
MDA-N = system: MDA-N
T47D = system: T47D
SN12C = system: SN12C
HCT-15 = system: HCT-15
HCC 2998 = system: HCC 2998
SF-295 = system: SF-295
SR = system: SR
PC-3 = system: PC-3
HL-60 = system: HL-60
MDA-MB-231 = system: MDA-MB-231
COLO 205 = system: COLO 205
HT-29 = system: HT-29
IGROV-1 = system: IGROV-1
Hs-578T = system: Hs-578T
OVCAR-8 = system: OVCAR-8
OVCAR-4 = system: OVCAR-4
HOP-92 = system: HOP-92
A498 = system: A498
NCI-H522 = system: NCI-H522
SNB-19 = system: SNB-19
A549 = system: A549
MOLT-4 = system: MOLT-4
KM12 = system: KM12
OVCAR-5 = system: OVCAR-5
SK-OV-3 = system: SK-OV-3
SK-MEL-28 = system: SK-MEL-28
NCI-H460 = system: NCI-H460
RPMI-8226 = system: RPMI-8226
LOX IMVI = system: LOX IMVI

Measured: GI50

CC(C)=Cc1cc2c(cc1O)CCC1C2CC[C@@]2(C)C1CC[C@@H]2O (stereo partly drawn)
8.89 µM: HCT-15
inactive: SK-MEL-5 6.24 µM | NCI/ADR-RES 7.66 µM | HCT-116 10.3 µM | Malme-3M 10.4 µM | SK-MEL-2 14.8 µM | RXF 393 6.01 µM | DU-145 14.3 µM | UO-31 13.3 µM | K562 3.75 µM | MCF7 14.4 µM | SF-268 16.7 µM | ACHN 14 µM | NCI-H226 8.81 µM | 786-0 12.4 µM | NCI-H23 15.8 µM | EKVX 15.6 µM | UACC-257 14.9 µM | U-251 10.4 µM | TK-10 3.16 µM | M14 10.4 µM | SNB-75 3.56 µM | CAKI-1 13.5 µM | CCRF-CEM 12.9 µM | SW-620 8.53 µM | MDA-N 2.44 µM | T47D 12.6 µM | SN12C 14.7 µM | HCC 2998 14.1 µM | SF-295 2.26 µM | SR 3.18 µM | PC-3 11.7 µM | HL-60 15.2 µM | MDA-MB-231 16.3 µM | COLO 205 18.4 µM | HT-29 14.9 µM | IGROV-1 12.8 µM | Hs-578T 18.5 µM | OVCAR-8 17.9 µM | OVCAR-4 30.3 µM | HOP-92 21.3 µM | A498 16.4 µM | NCI-H522 5.35 µM | SNB-19 11.6 µM | A549 12.5 µM | MOLT-4 6.41 µM | KM12 11.8 µM | OVCAR-5 15.7 µM | SK-OV-3 14.9 µM | SK-MEL-28 15.5 µM | NCI-H460 12 µM | RPMI-8226 5.14 µM | LOX IMVI 3.97 µM
